Measurements from PMC5803267, “A small molecule inhibitor of Rheb selectively targets mTORC1 signaling” (Nature Communications, 2018).

Key:
[1] = biological target: T1, Rheb-dependent mTORC1 kinase activity (Homo sapiens, UniProt Q15382); experiment: Rheb-dependent mTORC1 in vitro kinase assay (Rheb-IVK); format: biochemical; settings: for inhibition of mTORC1 activity in the Rheb-IVK: result in words
T1 construct: using full-length Rheb and mTORC1 purified from mammalian cells via a Flag-Raptor handle; made in house; host or cells: HA-GST-Rheb: Freestyle 293-F cells transfected with pRK5-HA-GST-Rheb; mTORC1: HEK-293E cells stably expressing FLAG-Raptor
T1 sequence (Q15382 1-181 limits assumed): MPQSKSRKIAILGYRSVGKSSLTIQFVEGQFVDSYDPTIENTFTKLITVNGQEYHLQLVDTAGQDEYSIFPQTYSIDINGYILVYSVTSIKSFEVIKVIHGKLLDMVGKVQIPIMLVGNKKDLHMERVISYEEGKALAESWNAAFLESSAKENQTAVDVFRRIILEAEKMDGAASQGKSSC

[2] = tested on: T389pS6K1 (mTORC1) in PC3 cells; experiment: Chronic treatment of PC3 cells, T389pS6K1 Western blot; format: cell-based, human; settings: PC3, replete, 24 h; NR1 30 µM, rapamycin 100 nM
Experimental: (§1) MCF-7 cells were serum-starved for 16 h and treated with compound for 90 min before cell lysis and Western blot analysis. For insulin-stimulated cells, 100 nM insulin was added 30 min before cell lysis. For EGF-stimulated cells, 100 ng mL^−1 EGF was added 10 min before cell lysis. c Rap1 activity was detected in lysates loaded in vitro with either GDP or GTPγS and treated with NR1 at the indicated concentrations. This was followed by a subsequent pulldown of GST-RalGDS-RBD. Bound Rap1 was detected by Western blot. d Evaluation of NR1 in a LAM patient-derived cell line (TRI102) under replete and serum-starved conditions. For replete conditions, TRI102 cells were treated for 90 min with compound in DMEM + 10% FBS. For serum-starved conditions, TRI102 cells were serum-starved 16 h and then treated for 90 min with compound prior to cell lysis and Western blot analysis. e HEK293 cells co-transfected with the indicated mTOR constructs and HA-GST-S6K1 were starved of amino acids or treated with NR1. To assess mTORC1 activity, an HA IP was performed and Western blots probed for ^T389pS6K1. f Chronic treatment of PC3 cells with NR1 to evaluate the inhibition of mTORC1 (using ^T389pS6K1) versus mTORC2 (using ^S473pAKT). PC3 cells were treated with compound under replete conditions for 24 h prior to cell lysis and Western blot analysis.
(§2) Accordingly, a hallmark of a selective mTORC1 inhibitor such as NR1 would be the lack of mTORC2 inhibition irrespective of the duration of treatment. PC3 cells are sensitive to mTORC2 inhibition with long-term rapamycin treatment. Indeed, upon treatment with rapamycin for 24 h, both ^T389pS6K1 and ^S473pAKT were lowered, indicating inhibitory effects on both mTORC1 and mTORC2, respectively.
(§3) For Western-based signaling assays, cells were treated for either 90 min or 2–24 h as indicated before lysis, normalization, and Western analysis. Cells were lysed in Triton lysis buffer: 1% Triton X-100, 50 mM HEPES pH 7.4, 100 mM NaCl, 2 mM EDTA, 10 mM β-glycerophosphate, 10 mM Na-pyrophosphate, protease inhibitor.

[3] = tested on: S473pAKT (mTORC2) in PC3 cells; experiment: Chronic treatment of PC3 cells, S473pAKT Western blot; format: cell-based, human; settings: PC3, replete, 24 h; NR1 30 µM, rapamycin 100 nM
Experimental: as §1, §2, §3

IC50 ([1]; LanthaScreen TR-FRET format, T46p4E-BP1 antibody, read-out: IC50 in the Rheb-IVK) [nM] | inhibition of mTORC1 activity in the Rheb-IVK [1] | SMILES | T389pS6K1 after 24 h treatment [2] | S473pAKT after 24 h treatment [3]
2 | inhibited mTORC1 activity | CCC(=O)N1CCN(c2ccc(-n3c(=O)ccc4cnc5ccc(-c6cnc7ccccc7c6)cc5c43)cc2C(F)(F)F)CC1 [Torin-1] |  | 
 | no inhibition | CO[C@H]1C[C@@H]2CC[C@@H](C)[C@@](O)(O2)C(=O)C(=O)N2CCCC[C@H]2C(=O)O[C@H]([C@H](C)C[C@@H]2CC[C@@H](O)[C@H](OC)C2)CC(=O)[C@H](C)/C=C(\C)[C@@H](O)[C@@H](OC)C(=O)[C@H](C)C[C@H](C)/C=C/C=C/C=C/1C [rapamycin, reference compound] | lowered | lowered
